Reference: article PMC11345828 (Journal of Medicinal Chemistry, 2024)
≈ marks a conversion by molar mass, not a printed value. Blank lines part the entries; values can stand above or below the molecule they belong to.

Legend:
Bcl-2 = Bcl-2 (Homo sapiens, UniProt P10415); experiment: FPA assay, Bcl-2; assay type: binding
Bcl-XL = Bcl-XL (Homo sapiens, UniProt Q07817); experiment: FPA assay, Bcl-XL; assay type: binding
Aqueous solubility = assay type: physicochemical; conditions: aqueous solution; at pH 7.8
Plasma protein binding = assay type: in vitro ADME; conditions: above the limit of quantification of the assay
[1] = Relative plasma protein binding by shift in EC50 in a caspase induction assay, dog; assay type: in vitro ADME; conditions: dog vs human
[2] = Relative plasma protein binding by shift in EC50 in a caspase induction assay, minipig; assay type: in vitro ADME; conditions: minipig vs human
[3] = Relative plasma protein binding by shift in EC50 in a caspase induction assay, rat; assay type: in vitro ADME; conditions: rat vs human
[4] = Metabolic stability in hepatocytes, human; assay type: in vitro ADME; conditions: incubated with 50% of human serum
[5] = Metabolic stability in hepatocytes, mouse; assay type: in vitro ADME; conditions: incubated with 50% of human serum
[6] = Metabolic stability in hepatocytes, rat; assay type: in vitro ADME; conditions: incubated with 50% of human serum
[7] = Metabolic stability in hepatocytes, dog; assay type: in vitro ADME; conditions: incubated with 50% of human serum
[8] = Metabolic stability in hepatocytes, minipig; assay type: in vitro ADME; conditions: incubated with 50% of human serum
OATP1B1/ABCC2 = experiment: Transporter substrate assessment; assay type: in vitro ADME
Excretion study in rat = assay type: in vivo
[9] = NCI-H929 subcutaneous multiple myeloma xenograft model; assay type: in vivo, mouse; conditions: female, CB17/Icr-Prkdc(scid)/IcrCrl, mouse, in vivo, single dose IV, NCI-H929 xenograft study
Method: (§1) Caspase-Glo 3/7 Assay (PROMEGA #G8090) was performed according to manufacturer’s instructions using 200 ng of sample lysate in a total volume of 100 μL per well. 100 μL of the GLO reagent were added, mixed, and incubated for 90 min at room temperature. The plate was measured on an EnSpireTM Plate reader (luminescence, 0.1s).
(§2) Female BomTac:NMRI-Foxn1nu mice and CB17/Icr-Prkdc(scid)/IcrCrl and were obtained from Taconic Denmark at an age of 6–8 weeks. After arrival of the local animal facility at Boehringer Ingelheim RCV GmbH & Co KG mice were allowed to adjust to housing conditions at least for 5 days before the start of the experiment. Mice were group-housed under pathogen-free and controlled environmental conditions and handled according to the institutional, governmental and European Union guidelines (Austrian Animal Protection Laws, GV-SOLAS and FELASA guidelines). Animal studies were approved by the internal ethics committee and the local governmental committee. To establish subcutaneous tumors mice were injected with 5 × 10^6 A427cells in Matrigel (CB17/Icr-Prkdc(scid)/IcrCrl), 1 × 10^6 NCI-H1048 cells in Matrigel (BomTac:NMRI-Foxn1nu and 5 × 10^6 NCI-H929 cells in Matrigel (CB17/Icr-Prkdc(scid)/IcrCrl). Tumor diameters were measured with a caliper three times a week. The volume of each tumor [in mm^3] was calculated according to the formula “tumor volume = length × diameter^2 × π/6.” To monitor side effects of treatment, mice were inspected daily for abnormalities and body weight was determined three times per week. Animals were sacrificed when the tumors reached a size of 1500 mm^3. […] Tumors were reported as regressing when the tumor volume at a given day was below the tumor volume at treatment start.

[10] = system: NCI-H929 cell line-derived MM xenograft; experiment: as above; assay type: in vivo, mouse; conditions: 60 and 80 mg/kg, single dose IV
Method: as §1, §2

[11] = A427 NSCLC subcutaneous xenograft model; assay type: in vivo, mouse; conditions: female, CB17/Icr-Prkdc(scid)/IcrCrl, mouse, in vivo, single agent
Method: (§3) After fixation, tumor samples were embedded in paraffin blocks. Two-μm thick sections of each FFPE-block were prepared on a microtome, placed on glass slides and dewaxed. H&E staining was performed using Papanicolaous Solution 1a Harris′ Hematoxylin solution (Merck) and Shandon Eosin Y aqueous (Thermo) on the Gemini stainer (Thermo). […] Analysis was performed using HALO image analysis software 2.1 (Indica Laboratories). Quantification of Ki67 positivity was performed using multiplex IHC module with integrated AI based nucleus detection and a threshold set for positive nuclei was used. Viable tumor area was calculated from H&E staining using AI based classifier Densenet V2.
as §2

Dog IV PK = conditions: dosed at 0.5 mg/kg
Method: (§4) For PK analysis, mice and dogs were administered intravenously with compound formulated either in 10% ethanol and 10% Cremophor EL for mice or in 50% ethanol and 50% PEG500 for dogs. Plasma samples were obtained at predefined time points and compound concentrations in plasma were measured by quantitative HPLC-MS/MS using an internal standard. Calibration and quality control samples were prepared using blank plasma from untreated animals. Samples were precipitated with acetonitrile and injected into a HPLC system (Agilent 1200). […] The HPLC was interfaced by ESI operated in positive ionization mode to a triple quadrupole mass spectrometer (6500+ Triple Quad System, SCIEX) operated in multiple reaction monitoring mode. Chromatograms were analyzed with Analyst (SCIEX) and pharmacokinetic parameters were calculated by noncompartmental analysis using proprietary software.

[12] = mouse, in vivo; cited from earlier work
[13] = system: A427 cell line-derived NSCLC xenograft; experiment: A427 NSCLC subcutaneous xenograft model; assay type: in vivo, mouse
Method: as §3, §2

A427 cells = experiment: cells; conditions: Homo sapiens, A-427, read-out: A427 GI50
Method: (§5) NCI-H1048 were cultured in custom medium prepared by PanBioTech containing DMEM/F12 + 5% fetal calf serum, 0.005 mg/mL insulin, 0.01 mg/mL transferrin, 30 nM sodium selenite, 10 nM hydrocortisone, 10 nM β-estradiol and 4.5 mM 2 mM L-glutamine. […] All cell lines were cultured at 37 °C with 5% CO2 in a humidified incubator and have been regularly tested negatively for mycoplasm contamination.
(§6) Suspension cells were plated immediately before compound addition. Adherent cell lines were incubated overnight at 37 °C in a tissue culture incubator prior to compound addition. Compounds were added in triplicates using an HP D300e Digital Dispenser (Hewlett-Packard) or manually at the concentrations indicated and total volumes were normalized using dimethyl sulfoxide (DMSO) backfill, with final DMSO concentration of 0.5%. Control wells were treated with DMSO only.

NCI-H1048 SCLC xenograft = conditions: topotecan at 2.5 mg/kg q3/4d
Method: Female BomTac:NMRI-Foxn1nu mice and CB17/Icr-Prkdc(scid)/IcrCrl and were obtained from Taconic Denmark at an age of 6–8 weeks. After arrival of the local animal facility at Boehringer Ingelheim RCV GmbH & Co KG mice were allowed to adjust to housing conditions at least for 5 days before the start of the experiment. […] To establish subcutaneous tumors mice were injected with 5 × 10^6 A427cells in Matrigel (CB17/Icr-Prkdc(scid)/IcrCrl), 1 × 10^6 NCI-H1048 cells in Matrigel (BomTac:NMRI-Foxn1nu and 5 × 10^6 NCI-H929 cells in Matrigel (CB17/Icr-Prkdc(scid)/IcrCrl). Tumor diameters were measured with a caliper three times a week. The volume of each tumor [in mm^3] was calculated according to the formula “tumor volume = length × diameter^2 × π/6.” To monitor side effects of treatment, mice were inspected daily for abnormalities and body weight was determined three times per week. Animals were sacrificed when the tumors reached a size of 1500 mm^3. […] Tumors were reported as regressing when the tumor volume at a given day was below the tumor volume at treatment start.

NCI-H1048 cells = experiment: cells; conditions: Homo sapiens, NCI-H1048, read-out: NCI-H1048 GI50
Method: as §5, §6

[14] = docetaxel at 10 mg/kg q7d, single agent

Sequence of Bcl-2 (P10415 whole entry, species assumed): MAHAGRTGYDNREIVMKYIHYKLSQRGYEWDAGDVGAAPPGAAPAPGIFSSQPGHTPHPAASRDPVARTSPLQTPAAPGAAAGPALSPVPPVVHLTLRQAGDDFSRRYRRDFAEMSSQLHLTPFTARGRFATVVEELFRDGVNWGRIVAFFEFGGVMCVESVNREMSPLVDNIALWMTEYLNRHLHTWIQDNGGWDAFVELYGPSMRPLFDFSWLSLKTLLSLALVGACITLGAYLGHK
Sequence of Bcl-XL (Q07817 whole entry, species assumed): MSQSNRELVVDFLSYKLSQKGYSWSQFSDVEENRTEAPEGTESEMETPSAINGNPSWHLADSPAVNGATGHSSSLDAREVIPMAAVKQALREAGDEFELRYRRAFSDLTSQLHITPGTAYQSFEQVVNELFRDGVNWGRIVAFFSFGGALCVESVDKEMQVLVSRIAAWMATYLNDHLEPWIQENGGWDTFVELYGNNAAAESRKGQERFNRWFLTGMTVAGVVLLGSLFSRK
Method for Mouse IV PK: as §4

Compound: COc1c(OCC2CCOCC2)cc(N2C[C@@H](C)n3c(c(CCCOc4cc(C)c(Cl)c(C)c4)c4ccc(Cl)c(-c5c(C)nc(C)nc5C)c43)C2=O)c2c1cc(C(=O)O)n2C [Compound 26, (R)-7-(7-Chloro-10-(3-(4-chloro-3,5-dimethylphenoxy)propyl)-4-methyl-1-oxo-6-(2,4,6-trimethylpyrimidin-5-yl)-3,4-dihydropyrazino[1,2-a]indol-2(1H)-yl)-4-methoxy-1-methyl-5-((tetrahydro-2H-pyran-4-yl)methoxy)-1H-indole-2-carboxylic Acid]
Ki (Bcl-2): 1.8 µM
Ki (Bcl-XL): 36 µM
solubility (Aqueous solubility): 15 mg/mL (≈ 17.3 mM)
fraction unbound (Plasma protein binding): < 0.002
plasma protein binding lower than in human [1]: ~2 fold
plasma protein binding lower than in human [2]: ~2 fold
plasma protein binding lower than human [3]: 3 fold
metabolic stability in hepatocytes [4]: 12 % Qh
metabolic stability in hepatocytes [5]: 40 % Qh
metabolic stability in hepatocytes [6]: 22 % Qh
metabolic stability in hepatocytes [7]: 19 % Qh
metabolic stability in hepatocytes [8]: 35 % Qh
substrate of OATP1B1/ABCC2 (OATP1B1/ABCC2): substrate
biliary clearance as share of the total clearance (Excretion study in rat): 60–75%
AUC ([9]; 60 mg/kg): 442 µM·h
AUC ([9]; 80 mg/kg): 635 µM·h
change in the median weight of the mice [10]: no significant change
AUC ([11]; 26 at 60 mg/kg q7d IV): 552 µM·h
AUC/Dose (Dog IV PK): 3860 nM*h/mpk
CL (Dog IV PK): 5.2 mL/min/kg
CL (% hep blood flow) (Dog IV PK): 17 % hep blood flow
CL (Mouse IV PK; mouse IV, dosed at 25 mg/kg): 2.2 mL/min/kg
reduction in clearance from compound 20 (Mouse IV PK; mouse IV, relative to compound 20): 20 fold
Vd (Mouse IV PK; mouse, plasma, iv, 25 mg/kg): < 0.1 L/kg
clearance (Mouse IV PK; mouse, plasma, iv, 25 mg/kg): 2.2 mL/min/kg
half-life (Mouse IV PK; mouse, plasma, iv, 25 mg/kg): 3.7 h

Compound: Cc1c(-c2c(-c3ccc(F)o3)sc3ncnc(O[C@H](Cc4ccccc4OCc4ccnn4CC(F)(F)F)C(=O)O)c23)ccc(OCCN2CCN(C)CC2)c1Cl [Compound S63845]
maximum tolerated dose lower than in wild-type mice [12]: ~3 fold

AUC ([11]; docetaxel at 10 mg/kg q7d): 15.8 µM·h
Compound: CC(=O)O[C@@]12CO[C@@H]1C[C@H](O)[C@@]1(C)C(=O)[C@H](O)C3=C(C)[C@@H](OC(=O)[C@H](O)[C@@H](NC(=O)OC(C)(C)C)c4ccccc4)C[C@@](O)([C@@H](OC(=O)c4ccccc4)[C@H]21)C3(C)C [Docetaxel, docetaxel]
TGI d21 [13, 14]: 112%
Tumor regressions d21 [13, 14]: 8 x/8
tumor outgrowth began around day after treatment start ([13]; docetaxel at 10 mg/kg q7d alone): ~15 days
GI50 (A427 cells): 4.4 µM

GI50 (NCI-H1048 cells): 0.014 µM
Compound: CC[C@@]1(O)C(=O)OCc2c1cc1n(c2=O)Cc2cc3c(CN(C)C)c(O)ccc3nc2-1 [Topotecan, topotecan]
TGI d16 (NCI-H1048 SCLC xenograft): 94%
Tumor regression d16 (NCI-H1048 SCLC xenograft): 1 x/8
